Data as given in US4605744A, “Imidazole derivatives” (Hoffmann-La Roche Inc., priority 1985, dated 1986).
Counter-ions that a name gives are not always drawn.

Columns and labels:
Assay in all cases: In vitro antibacterial activity (MIC)
Format in all cases: cell-based
[1] = tested on: S. marcescens 5805; conditions: Serratia marcescens, 5805, S. marcescens 5805; read-out: MIC
In short: (§1)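 Mueller-Hinton broth carries the compound at 128–0.008 μg/ml; diluted drug may be used fresh or stored frozen at -10° to -70° C before use. Wells are seeded with a 10^-2 dilution of overnight culture and incubated overnight at 37° C.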

[2] = tested on: E. coli 48; conditions: Escherichia coli, 48, E. coli 48; read-out: MIC
In short: as §1

[3] = tested on: P. aeruginosa B; conditions: Pseudomonas aeruginosa, read-out: MIC
In short: as §1

[4] = tested on: S. pneumoniae 6301; conditions: Streptococcus pneumoniae, 6301, S. pneumoniae 6301; read-out: MIC
In short: as §1

[5] = tested on: E. cloacae 9570A; conditions: Enterobacter cloacae, read-out: MIC
In short: as §1

[6] = tested on: P. aeruginosa 6148B; conditions: Pseudomonas aeruginosa, read-out: MIC
In short: as §1

[7] = tested on: C. freundii CDC6; conditions: Citrobacter freundii, CDC6, C. freundii CDC6; read-out: MIC
In short: as §1

[8] = tested on: S. faecalis C1; conditions: Enterococcus faecalis; S. faecalis C1; read-out: MIC
In short: as §1

[9] = tested on: S. typhi P58A; conditions: Salmonella enterica, TYPHI
In short: as §1

[10] = tested on: K. pneumoniae 8357; conditions: Klebsiella pneumoniae, 8357, K. pneumoniae 8357; read-out: MIC
In short: as §1

[11] = tested on: P. aeruginosa 503-56; conditions: Pseudomonas aeruginosa, 50356, P. aeruginosa 503-56; read-out: MIC
In short: as §1

[12] = tested on: S. marcescens S5; conditions: Serratia marcescens, S5, S. marcescens S5; read-out: MIC
In short: as §1

[13] = tested on: P. aeruginosa POW 151; conditions: Pseudomonas aeruginosa, POW151
In short: as §1

[14] = tested on: E. coli R-563; conditions: Escherichia coli, R563, E. coli R-563; read-out: MIC
In short: as §1

[15] = tested on: K. pneumoniae 35; conditions: Klebsiella pneumoniae; K. pneumoniae 35; read-out: MIC
In short: as §1

[16] = tested on: S. marcescens S3; conditions: Serratia marcescens; S. marcescens S3; read-out: MIC
In short: as §1

[17] = tested on: E. cloacae 6951; conditions: Enterobacter cloacae, 6951, E. cloacae 6951; read-out: MIC
In short: as §1

[18] = tested on: E. coli 5152; conditions: Escherichia coli, 5152, E. coli 5152; read-out: MIC
In short: as §1

[19] = tested on: E. cloacae 9295; conditions: Enterobacter cloacae, 9295, E. cloacae 9295; read-out: MIC
In short: as §1

[20] = tested on: C. freundii 8ASM; conditions: Citrobacter freundii, 8ASM, C. freundii 8ASM; read-out: MIC
In short: as §1

[21] = tested on: P. aeruginosa 5712; conditions: Pseudomonas aeruginosa; P. aeruginosa 5712; read-out: MIC
In short: as §1

[22] = tested on: P. aeruginosa 5700; conditions: Pseudomonas aeruginosa, 5700, P. aeruginosa 5700; read-out: MIC
In short: as §1

[23] = tested on: K. pneumoniae 503-964; conditions: Klebsiella pneumoniae, 503964; K. pneumoniae 503-964; read-out: MIC
In short: as §1

[24] = tested on: P. rettgeri ATCC 9250; conditions: Providencia rettgeri, ATCC9250, P. rettgeri ATCC 9250; read-out: MIC
In short: as §1

[25] = tested on: K. pneumoniae HE7; conditions: Klebsiella pneumoniae; K. pneumoniae HE7; read-out: MIC
In short: as §1

[26] = tested on: S. pneumoniae 6302; conditions: Streptococcus pneumoniae, 6302, S. pneumoniae 6302; read-out: MIC
In short: as §1

[27] = tested on: P. aeruginosa Stone 130; conditions: Pseudomonas aeruginosa, STONE130, read-out: MIC
In short: as §1

[28] = tested on: K. pneumoniae 503-994; conditions: Klebsiella pneumoniae, 503994, K. pneumoniae 503-994; read-out: MIC
In short: as §1

[29] = tested on: E. cloacae 5699; conditions: Enterobacter cloacae, 5699, E. cloacae 5699; read-out: MIC
In short: as §1

[30] = tested on: E. aerogenes 503-478; conditions: Klebsiella aerogenes, 503478, E. aerogenes 503-478; read-out: MIC
In short: as §1

[31] = tested on: P. mirabilis 2; conditions: Proteus mirabilis, 2, P. mirabilis 2; read-out: MIC
In short: as §1

[32] = tested on: E. cloacae P99; conditions: Enterobacter cloacae, P99, E. cloacae P99
In short: as §1

[33] = tested on: P. vulgaris ATCC 6380; conditions: Proteus vulgaris, ATCC6380, P. vulgaris ATCC 6380; read-out: MIC
In short: as §1

[34] = tested on: S. aureus Smith; conditions: Staphylococcus aureus, S. aureus Smith; read-out: MIC
In short: as §1

[35] = tested on: E. cloacae 214; conditions: Enterobacter cloacae, 214, E. cloacae 214; read-out: MIC
In short: as §1

[36] = tested on: S. aureus Giorgio; conditions: Staphylococcus aureus, S. aureus Giorgio; read-out: MIC
In short: as §1

[37] = tested on: S. marcescens SM; conditions: Serratia marcescens, read-out: MIC
In short: as §1

[38] = tested on: S. marcescens S2; conditions: Serratia marcescens; S. marcescens S2; read-out: MIC
In short: as §1

[39] = tested on: C. diversus CDC 1663-72; conditions: Citrobacter koseri, CDC166372; C. diversus CDC 1663-72; read-out: MIC
In short: as §1

[40] = tested on: P. mirabilis 620A; conditions: Proteus mirabilis, 620A, P. mirabilis 620A; read-out: MIC
In short: as §1

[41] = tested on: S. marcescens S147; conditions: Serratia marcescens; S. marcescens S147; read-out: MIC
In short: as §1

[42] = tested on: S. pyogenes 503-782; conditions: Streptococcus pyogenes, 503782; S. pyogenes 503-782; read-out: MIC
In short: as §1

[43] = tested on: S. pneumoniae SC; conditions: Streptococcus pneumoniae, read-out: MIC
In short: as §1

[44] = tested on: K. pneumoniae 5096; conditions: Klebsiella pneumoniae; K. pneumoniae 5096; read-out: MIC
In short: as §1

[45] = tested on: P. vulgaris 100; conditions: Proteus vulgaris; P. vulgaris 100; read-out: MIC
In short: as §1

CC1(C)S[C@@H]2[C@H](N=CN3CCC(CCCn4ccnc4)CC3)C(=O)N2[C@H]1C(=O)O [C, [2S-(2alpha,5alpha,6beta)]-6-[[4-[3-(1H-imidazol-1-yl)propyl]-1-piperidinyl]methylene]amino]-3,3-dimethyl-7-oxo-4-thia-1-azabicyclo[3.2.0]heptane-2-carboxylic acid 1.2 mole hydrochloride monohydrate]
MIC [1]: 32 µg/mL | MIC [2]: 2 µg/mL | MIC [3]: 8 µg/mL | MIC [4]: 128 µg/mL | MIC [5]: 16 µg/mL | MIC [6]: > 128 µg/mL | MIC [7]: 16 µg/mL | MIC [8]: > 128 µg/mL | MIC [9]: 8 µg/mL | MIC [10]: 16 µg/mL | MIC [11]: > 128 µg/mL | MIC [12]: 64 µg/mL | MIC [13]: > 128 µg/mL | MIC [14]: 4 µg/mL | MIC [15]: 8 µg/mL | MIC [16]: 16 µg/mL | MIC [17]: > 128 µg/mL | MIC [18]: > 128 µg/mL | MIC [19]: 16 µg/mL | MIC [20]: 4 µg/mL | MIC [21]: > 128 µg/mL | MIC [22]: 16 µg/mL | MIC [23]: 8 µg/mL | MIC [24]: 16 µg/mL | MIC [25]: > 128 µg/mL | MIC [26]: 128 µg/mL | MIC [27]: > 128 µg/mL | MIC [28]: 32 µg/mL | MIC [29]: 16 µg/mL | MIC [30]: 128 µg/mL | MIC [31]: 16 µg/mL | MIC [32]: 8 µg/mL | MIC [33]: 4 µg/mL | MIC [34]: > 128 µg/mL | MIC [35]: 16 µg/mL | MIC [36]: > 128 µg/mL | MIC [37]: 8 µg/mL | MIC [38]: 16 µg/mL | MIC [39]: 4 µg/mL | MIC [40]: > 128 µg/mL | MIC [41]: 16 µg/mL | MIC [42]: > 128 µg/mL | MIC [43]: 64 µg/mL | MIC [44]: > 128 µg/mL | MIC [45]: > 128 µg/mL
